# Reference: patent US10179914B2, “CDC25A inhibitor for the treatment of drug resistant cancer or for the prevention of tumor relapse” (INSERM (INSTITUT NATIONAL DE LA SANTÉ ET DE LA RECHERCHE …, priority 2014, dated 2019)
# What was measured:
# MOLM-14 and MV4-11 cells = experiment: Differentiation of FLT3-ITD AML cell lines (surface markers, morphology); type: cell-based, human
# Experimental: (a-b) MOLM-14 and MV4-11 cells were treated for different times with IRC-083864 (100 nM and 200 nM) and the expression of the cell surface markers CD11b, CD14 and CD15 were followed by flow cytometry analysis. (c) MOLM-14 and MV4-11 cells were treated for different times with IRC-083864 (100 nM) and morphological changes were estimated by microscopy after cells were cytospun and stained at days 8 and 13. Original magnification ×100. (d) MOLM-14 cells were treated for different times with IRC-083864 (100 nM) and c-myc expression as well as C/EBPα phosphorylation on serine 21 were analyzed by western blot at day 1, and C/EBPε expression after 6 days of treatment. (e) MOLM-14 cells were transfected with CDC25A shRNA The expression of the cell surface markers CD11b, CD14 and CD15 were followed by flow cytometry analysis at day 3 and 6 (upper panel), and their morphology was analyzed by microscopy after 6 days (lower panel). Original magnification ×100. (f) MOLM-14 cells were transfected with CDC25A siRNA, and their morphology was analyzed by microscopy after 3 days (upper panel). Original magnification ×100. The efficiency of CDC25A siRNA was assessed by western blot analysis (lower panel).
# Lentiviral infections. To generate lentiviral vectors expressing CDC25A protein, sequences were cloned into the pTrip-TAL-Ires-GFP lentiviral vector. We used 293-T packaging cells, co-transfected with lentiviral protein (GAG, POL, and ENV) encoding plasmids, and plasmids containing a control or CDC25A genes, separately. Supernatants containing lentivirus were collected 48 h after transfection, during 3 consecutive days. MOLM-14 cells were plated at 5×10^5 cells in 200 μl in serum-free medium and 5 μl of lentiviral supernatant was added during 3 h. Cells were then grown in 10% FBS RPMI medium.
# Flow cytometry. Apoptotic cells were detected with Annexin V-FITC detection kit from BD Pharmingen (San Diego, Calif., USA) according to the manufacturer instructions. To evaluate AML cell differentiation, cells were stained for 30 min with the following anti-human monoclonal antibodies: CD11b-PE (Beckman Coulter), CD14-FITC (BD Biosciences), CD15-APC (BD Biosciences). For patient samples, additional hCD45-APC-H7 (BD Biosciences), Annexin V-Pacific Blue (BioLegend, San Diego, Calif., USA) and 7-AAD (Sigma) were used; and for bone marrow mice cells, additional CD33-FITC, CD44-PE Cy7, mCD45-PerCP Cy 5.5, CD14-Alexa 700 were used. Data were collected on a LSRII or a LSRFortessa cytometer (BD Biosciences), and analyzed with FlowJo software. A minimum of 10,000 events was collected.
# Morphological examination. […] were spun at 500 rpm for 5 minutes onto glass slides and May-Grünwald-Giemsa stained at the Toulouse University Hospital hematology laboratory.
# [1] = tested on: KG1 cells (FLT3 wild type); experiment: Cell proliferation, trypan blue counting, KG1; type: cell-based, human
# Experimental: (a) MV4-11 and MOLM-14 FLT3-ITD positive cells, KG1, HL-60 and TF-1 FLT3 wild type cells, and K562 FLT3 negative cells were cultured in the presence of the CDC25 inhibitor IRC-083864 (200 nM). Cells were harvested each day and counted after trypan blue coloration. The graph represents three independent experiments.
# Cell lines and reagents. Human acute myeloid leukemia cell lines MOLM-14 (Matsuo Y et al, Leukemia 1997) (kindly provided by Martin Carroll, University of Pennsylvania, Philadelphia, Pa., USA) MV4-11, K562 (ACC-102 and ACC-10, DSMZ, Braunschweig, Germany) and FLT3-ITD-expressing murine BaF3 cells were cultured in RPMI 1640 medium (Gibco, Life Technologies, Carlsbad, Calif., USA) supplemented with 10% fetal bovine serum (Sigma, Saint Louis, Calif., USA). TF-1 (ATCC-CRL2003) cells were cultured in RPMI 1640 medium with 10% fetal bovine serum and GM-CSF 2 ng/ml. Concerning MOLM-14 cell line, the presence of a monoallelic 21 bp FLT3-ITD mutation and of an MLL-containing ins(11; 9)(q23;p22p23) were verified (Hematology laboratory of Toulouse University Hospital, Prof E. Delabesse and Dr I. Luquet). KG1 and HL-60 (ACC-14 and ACC-3, DSMZ) cell lines were grown in Iscove's Modified Dulbecco's Medium (IMDM, Gibco) plus 20% FBS. […]
# siRNA. […] Twenty-four or forty-eight hours after transfection, cells were counted (trypan blue staining), and western blotting was performed.
structure (smiles),measurement,setting,value
Cc1nc2c(s1)C(=O)C=C(NCCCN(C)CCCNC1=CC(=O)c3nc(-c4cc(F)ccc4F)oc3C1=O)C2=O [IRC-083864],expression of CD11b,"MOLM-14 and MV4-11 cells; 100 nM and 200 nM, as early as two days",induced in a dose dependent manner
same,morphological analysis,"MOLM-14 and MV4-11 cells; 100 nM, 8 and 13 days",monocytic-like nuclear changes
same,expression of CD15,MOLM-14 and MV4-11 cells; after 8 days,either decreased or did not change significantly
same,expression of monocytic marker CD14,"MOLM-14 and MV4-11 cells; after 8 days, both cell lines",increased
same,proliferation of KG1,[1]; 200 nM,did not decrease
same,proliferation of KG1 upon stimulation by FLT3 ligand,[1]; FLT3 ligand stimulation,had no effect
